# Values of other authors, collected in patent publication US20040148013A1, “Stent-based delivery statins to prevent restenosis” (priority 2003, published 2004).
# Tests used:
# neointimal accumulation = conditions: in vivo, rat carotid artery injury model
smiles,measurement,setting,value
"CC(=O)O[C@H]1C(=O)[C@@]2(C)[C@H]([C@H](OC(=O)c3ccccc3)[C@]3(O)C[C@H](OC(=O)[C@H](O)[C@@H](NC(=O)c4ccccc4)c4ccccc4)C(C)=C1C3(C)C)[C@]1(OC(C)=O)CO[C@@H]1C[C@@H]2O [Taxol®, Paclitaxel]",induction of apoptosis,SMC; biologically relevant concentrations,does not appear to induce apoptosis
same,SMC proliferation,SMC; in vitro,inhibited
same,platelet-derived growth factor-stimulated SMC migration,SMC; in vitro,inhibited
same,neointimal accumulation,neointimal accumulation,inhibited neointimal accumulation
